Measured values from patent US10517842B2, “Methods of modulating miRNA levels and compositions for use in the same” (Los Angeles Biomedical Research Institute at Harbor-UCLA …, priority 2017, dated 2019).

Legend:
caspase 3/7 = assay: Caspase-3/7 activity assay (Apo-One) in LSMC; type: cell-based, human; conditions: Tranilast 200 μM, 48 hrs
Experimental: LSMC were cultured in 96-well plates as mentioned above and at sub-confluence were treated with 200 μM Tranilast for 48 hrs. The caspase 3/7 activity was determined using the Apo-One homogeneous caspase-3/7 assay (Promega, Madison, Wis.) after the indicated time periods according to the manufacturer's protocol. The Apo-One caspase-3/7 reagent was added in a 1:1 ratio with the medium, and the rate of caspase-3/7 activity was determined by measuring the fluorescence using a multi-plate reader (Molecular Devices, Inc., Sunnyvale, Calif.) at an excitation of 485 nm and an emission of 527 nm.

miR-200c = assay: Quantitative RT-PCR (TaqMan miRNA assay), cellular and secreted miRNA in LSMC; type: cell-based, human; conditions: Tranilast 200 μM, 48 hours, P<0.05
Experimental: (§1) Total RNA was extracted from LSMC using RNAzol (GeneCopoeia, Rockville, Md.) and their quantity and quality was determined (ND-1000 Spectrophotometer, NanoDrop Technologies, Wilmington, Del.) as previously described (Chuang & Khorram, “miR-200c Regulates IL8 Expression by Targeting IKBKB: A Potential Mediator of Inflammation in Leiomyoma Pathogenesis,” PloS one (2014) 9:e95370). For medium miRNA extraction, 5 pg of synthetic miR-1 from Caenorhabditis elegans (cel-miR-1) was added as a spike-in control for purification efficiency. Subsequently, 2 μg or 10 ng (for miRNA) was reverse transcribed using random primers for CCND1, CDK2, COL1A1, COL3A1, TGF-β3, DNMT1 and EZH2 or specific primers for miR-29c and miR-200c according to the manufacturer's guidelines (Applied Biosystems, Carlsbad, Calif.). Quantitative RT-PCR was carried out using SYBR gene expression master mix or TaqMan miRNA expression assays (Applied Biosystems). Reactions were incubated for 10 min at 95° C. followed by 40 cycles for 15 seconds at 95° C. and 1 min at 60° C. The level of mRNAs and expression of cellular and secreted miRNA was determined using the Invitrogen StepOne System with 18S, RNU6B and cel-miR-1 used for normalization respectively. All reactions were run in triplicate and relative expression was analyzed with the comparative cycle threshold method (2^−ΔΔCT) according to the manufacturer (Applied Biosystems). Values were expressed as fold change compared to the control group.

miR-29c = assay: as above; type: cell-based, human; conditions: Tranilast 200 μM, 48 hours, P<0.05
Experimental: as §1

3′UTR of CDK2 = assay: 3′UTR luciferase reporter assay in LSMC; type: cell-based, human; conditions: Tranilast 200 μM vs DMSO set as 1, 48 hrs before and 48 hrs after transfection, LSMC; P<0.05
3′UTR fragment of IL8 = assay: 3′UTR luciferase reporter assay in LSMC; type: cell-based, human; conditions: Tranilast 200 μM vs DMSO
Experimental: FIG. 10A: The relative luciferase activity in LSMC treated with Tranilast (200 μM) or DMSO as control for 48 hrs prior to transfection with Renilla and Firefly luciferase reporter plasmids carrying a 3′UTR fragment of COL3A1, CDK2 or IL8 and incubated with Tranilast (200 μM) or DMSO containing medium after transfection for another 48 hrs. The relative luciferase activity is presented as the ratio of Firefly:Renilla as compared to DMSO which was independently set as 1. The results are presented as mean±SEM of at least three sets of independent experiments using LSMC isolated from 3 patients. FIG. 10B: Protein expression of COL3A1 and CDK2 was determined after transfection of anti-miR scrambled oligonucleotides (aNC) or anti-miR-29c oligonucleotides (a29c) in LSMC for 72 hrs with DMSO or Tranilast (200 μM) treatment for the last 48 hrs. GAPDH was used as loading control. The result is one representative of at least three sets of independent experiments using LSMC isolated from 3 patients. FIG. 10C: The bar graph presented the relative band densities as mean±SEM of at least three independent experiments. Inhibition of protein expression by Tranilast treatment was calculated relative to changes in corresponding DMSO controls in cells transfected with aNC or anti-miR-29c.

[1] = tested on: 3′UTR of COL3A1 in lung cancer cell line A549; assay: 3′UTR luciferase reporter assay in A549; type: cell-based; conditions: Tranilast
NF-kB = NF-kB luciferase reporter assay in LSMC; type: cell-based, human; conditions: Tranilast 200 μM, 48 hrs, vs DMSO set as 1
Experimental: The ratio of Firefly:Renilla was determined after treatment of Tranilast (200 μM) for 48 hrs and reported as relative luciferase activity as compared to DMSO which was independently set as 1. FIG. 13B: Graphical depiction of the NF-Kb (p65) binding elements in the miR-200c promoter. […] The results are presented as mean±SEM of at least three independent experiments using LSMC isolated from 3 patients.

[2] = tested on: NF-Kb (p65) binding elements in the miR-200c promoter; assay: CHIP assay, p65 binding in the miR-200c promoter in LSMC; type: cell-based, human; conditions: Tranilast 200 μM, 48 hrs, percent input method

**Q.** Which results are given for `COc1ccc(C=CC(=O)Nc2ccccc2C(=O)O)cc1OC` [Tranilast, 2-[[3-(3,4-dimethoxyphenyl)-1-oxo-2-propenyl]amino]benzoic acid]?
**A.** Caspase 3/7 activity (caspase 3/7): without a significant effect; expression of secreted (medium) miR-200c (miR-200c; LSMC medium): significantly increased; expression of cellular miR-200c (miR-200c; LSMC): significantly increased; expression of secreted (medium) miR-29c (miR-29c; LSMC medium): significantly increased; expression of cellular miR-29c (miR-29c; LSMC): significantly increased; 3′UTR activity of CDK2 (relative luciferase activity, Firefly:Renilla) (3′UTR of CDK2): suppressed; expression of IL8 (heading to FIG. 10A, 3′UTR reporter) (3′UTR fragment of IL8): Down-regulated; activity of luciferase reporter containing 3′UTR of COL3A1 [1]: Inhibits; NF-kB signaling (NF-kB luciferase reporter activity) (NF-kB): Blockade; p65 binding ability in miR-200c promoter [2]: decreased
